# Reference: PubChem BioAssay (NCI)
#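 Results reflect a 48-hour exposure of cells in 96-well plates to compound at five concentrations. At the TGI there is no net growth.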
# Key:
# Experiment in all cases: growth of human tumour cells (NCI), 48 h
# CAKI-1 renal = test system: CAKI-1 renal
# XF 498 CNS = test system: XF 498 CNS
# M19-MEL melanoma = test system: M19-MEL melanoma
# HL-60(TB) leukemia = test system: HL-60(TB) leukemia
# U251 CNS = test system: U251 CNS
# A498 renal = test system: A498 renal
# KM20L2 colon = test system: KM20L2 colon
# UACC-257 melanoma = test system: UACC-257 melanoma
# HCT-15 colon = test system: HCT-15 colon
# SK-MEL-28 melanoma = test system: SK-MEL-28 melanoma
# RPMI-8226 leukemia = test system: RPMI-8226 leukemia
# DMS 114 small cell lung = test system: DMS 114 small cell lung
# OVCAR-4 ovarian = test system: OVCAR-4 ovarian
# IGROV1 ovarian = test system: IGROV1 ovarian
# LOX IMVI melanoma = test system: LOX IMVI melanoma
# A549 NSCLC = test system: A549 NSCLC
# DMS 273 small cell lung = test system: DMS 273 small cell lung
# ACHN renal = test system: ACHN renal
# HOP-62 NSCLC = test system: HOP-62 NSCLC
# NCI-H460 lung = test system: NCI-H460 lung
# TK-10 renal = test system: TK-10 renal
# K-562 leukemia = test system: K-562 leukemia
# OVCAR-8 ovarian = test system: OVCAR-8 ovarian
# RXF 393 renal = test system: RXF 393 renal
# EKVX NSCLC = test system: EKVX NSCLC
# HCT-116 colon = test system: HCT-116 colon
# HCC-2998 colon = test system: HCC-2998 colon
# SF-268 CNS = test system: SF-268 CNS
# CCRF-CEM leukemia = test system: CCRF-CEM leukemia
# HOP-92 NSCLC = test system: HOP-92 NSCLC
# SW-620 colon = test system: SW-620 colon
# OVCAR-3 ovarian = test system: OVCAR-3 ovarian
# SF-539 CNS = test system: SF-539 CNS
# SK-OV-3 ovarian = test system: SK-OV-3 ovarian
# SNB-78 CNS = test system: SNB-78 CNS
# SR leukemia = test system: SR leukemia
# MALME-3M melanoma = test system: MALME-3M melanoma
# COLO 205 colon = test system: COLO 205 colon
# 786-0 renal = test system: 786-0 renal
# NCI-H23 lung = test system: NCI-H23 lung
# DLD-1 colon = test system: DLD-1 colon
# HT29 colon = test system: HT29 colon
# LXFL 529 NSCLC = test system: LXFL 529 NSCLC
# SK-MEL-5 melanoma = test system: SK-MEL-5 melanoma
# UO-31 renal = test system: UO-31 renal
# KM12 colon = test system: KM12 colon
# M14 melanoma = test system: M14 melanoma
# SK-MEL-2 melanoma = test system: SK-MEL-2 melanoma
# SNB-75 CNS = test system: SNB-75 CNS
# SF-295 CNS = test system: SF-295 CNS
# UACC-62 melanoma = test system: UACC-62 melanoma
# SNB-19 CNS = test system: SNB-19 CNS
# SN12C renal = test system: SN12C renal
# OVCAR-5 ovarian = test system: OVCAR-5 ovarian
# RXF-631 renal = test system: RXF-631 renal
# HOP-18 NSCLC = test system: HOP-18 NSCLC
# MOLT-4 leukemia = test system: MOLT-4 leukemia
# NCI-H226 lung = test system: NCI-H226 lung
# NCI-H522 lung = test system: NCI-H522 lung
smiles,measurement,setting,value
CCCSS[C@H]1NC(=O)[C@H]1NC(=O)COc1ccccc1,TGI,CAKI-1 renal,43.6 µM
same,TGI,XF 498 CNS,33.8 µM
same,TGI,M19-MEL melanoma,33 µM
same,TGI,HL-60(TB) leukemia,5.72 µM
same,TGI,U251 CNS,31.8 µM
same,TGI,A498 renal,70.3 µM
same,TGI,KM20L2 colon,42.4 µM
same,TGI,UACC-257 melanoma,27.8 µM
same,TGI,HCT-15 colon,24.9 µM
same,TGI,SK-MEL-28 melanoma,30.3 µM
same,TGI,RPMI-8226 leukemia,88.1 µM
same,TGI,DMS 114 small cell lung,34.5 µM
same,TGI,OVCAR-4 ovarian,31.9 µM
same,TGI,IGROV1 ovarian,43.2 µM
same,TGI,LOX IMVI melanoma,30.2 µM
same,TGI,A549 NSCLC,67.3 µM
same,TGI,DMS 273 small cell lung,31.2 µM
same,TGI,ACHN renal,30.2 µM
same,TGI,HOP-62 NSCLC,> 100 µM
same,TGI,NCI-H460 lung,31.4 µM
same,TGI,TK-10 renal,63.9 µM
same,TGI,K-562 leukemia,28.6 µM
same,TGI,OVCAR-8 ovarian,27.6 µM
same,TGI,RXF 393 renal,29.7 µM
same,TGI,EKVX NSCLC,41.4 µM
same,TGI,HCT-116 colon,22 µM
same,TGI,HCC-2998 colon,29.9 µM
same,TGI,SF-268 CNS,40.5 µM
same,TGI,CCRF-CEM leukemia,19.1 µM
same,TGI,HOP-92 NSCLC,24.4 µM
same,TGI,SW-620 colon,18.2 µM
same,TGI,OVCAR-3 ovarian,31.5 µM
same,TGI,SF-539 CNS,29.5 µM
same,TGI,SK-OV-3 ovarian,> 100 µM
same,TGI,SNB-78 CNS,60.6 µM
same,TGI,SR leukemia,19.6 µM
same,TGI,MALME-3M melanoma,26.9 µM
same,TGI,COLO 205 colon,25 µM
same,TGI,786-0 renal,31.5 µM
same,TGI,NCI-H23 lung,31.9 µM
same,TGI,DLD-1 colon,23.2 µM
same,TGI,HT29 colon,36.3 µM
same,TGI,LXFL 529 NSCLC,18.3 µM
same,TGI,SK-MEL-5 melanoma,54.9 µM
same,TGI,UO-31 renal,> 100 µM
same,TGI,KM12 colon,31.6 µM
same,TGI,M14 melanoma,24.4 µM
same,TGI,SK-MEL-2 melanoma,33.5 µM
same,TGI,SNB-75 CNS,44 µM
same,TGI,SF-295 CNS,> 100 µM
same,TGI,UACC-62 melanoma,32.1 µM
same,TGI,SNB-19 CNS,> 100 µM
same,TGI,SN12C renal,29.8 µM
same,TGI,OVCAR-5 ovarian,> 100 µM
same,TGI,RXF-631 renal,31.6 µM
same,TGI,HOP-18 NSCLC,66.7 µM
same,TGI,MOLT-4 leukemia,13.2 µM
CC1(C)C2C=CC1C(=O)CC2 (stereo not drawn),TGI,CAKI-1 renal,> 100 µM
same,TGI,XF 498 CNS,> 100 µM
same,TGI,NCI-H226 lung,> 100 µM
same,TGI,HL-60(TB) leukemia,> 100 µM
same,TGI,U251 CNS,> 100 µM
same,TGI,A498 renal,> 100 µM
same,TGI,KM20L2 colon,> 100 µM
same,TGI,UACC-257 melanoma,> 100 µM
same,TGI,HCT-15 colon,> 100 µM
same,TGI,SK-MEL-28 melanoma,> 100 µM
same,TGI,RPMI-8226 leukemia,> 100 µM
same,TGI,OVCAR-4 ovarian,> 100 µM
same,TGI,LOX IMVI melanoma,> 100 µM
same,TGI,NCI-H522 lung,> 100 µM
same,TGI,A549 NSCLC,> 100 µM
same,TGI,DMS 273 small cell lung,> 100 µM
same,TGI,ACHN renal,> 100 µM
same,TGI,HOP-62 NSCLC,> 100 µM
same,TGI,NCI-H460 lung,> 100 µM
same,TGI,TK-10 renal,> 100 µM
same,TGI,K-562 leukemia,> 100 µM
same,TGI,OVCAR-8 ovarian,> 100 µM
same,TGI,RXF 393 renal,> 100 µM
same,TGI,EKVX NSCLC,> 100 µM
same,TGI,HCT-116 colon,> 100 µM
same,TGI,HCC-2998 colon,> 100 µM
same,TGI,SF-268 CNS,> 100 µM
same,TGI,CCRF-CEM leukemia,> 100 µM
same,TGI,HOP-92 NSCLC,> 100 µM
same,TGI,SW-620 colon,> 100 µM
same,TGI,OVCAR-3 ovarian,> 100 µM
same,TGI,SF-539 CNS,> 100 µM
same,TGI,SNB-78 CNS,> 100 µM
same,TGI,MALME-3M melanoma,> 100 µM
same,TGI,786-0 renal,> 100 µM
same,TGI,NCI-H23 lung,> 100 µM
same,TGI,DLD-1 colon,> 100 µM
same,TGI,HT29 colon,> 100 µM
same,TGI,LXFL 529 NSCLC,> 100 µM
same,TGI,SK-MEL-5 melanoma,> 100 µM
same,TGI,UO-31 renal,> 100 µM
same,TGI,KM12 colon,> 100 µM
same,TGI,M14 melanoma,> 100 µM
same,TGI,SK-MEL-2 melanoma,> 100 µM
same,TGI,SNB-75 CNS,> 100 µM
same,TGI,SF-295 CNS,> 100 µM
same,TGI,SNB-19 CNS,> 100 µM
same,TGI,OVCAR-5 ovarian,> 100 µM
same,TGI,RXF-631 renal,> 100 µM
same,TGI,HOP-18 NSCLC,> 100 µM
same,TGI,MOLT-4 leukemia,> 100 µM
COc1ccc(C2ON(c3cccc(C)n3)CC=C2C)cc1 (stereo not drawn),TGI,CAKI-1 renal,> 100 µM
same,TGI,XF 498 CNS,> 100 µM
same,TGI,M19-MEL melanoma,> 100 µM
same,TGI,NCI-H226 lung,> 100 µM
same,TGI,HL-60(TB) leukemia,43.7 µM
same,TGI,U251 CNS,> 100 µM
same,TGI,KM20L2 colon,> 100 µM
same,TGI,UACC-257 melanoma,> 100 µM
same,TGI,HCT-15 colon,> 100 µM
same,TGI,SK-MEL-28 melanoma,71.3 µM
same,TGI,RPMI-8226 leukemia,> 100 µM
same,TGI,DMS 114 small cell lung,> 100 µM
same,TGI,OVCAR-4 ovarian,> 100 µM
same,TGI,IGROV1 ovarian,> 100 µM
same,TGI,LOX IMVI melanoma,> 100 µM
same,TGI,NCI-H522 lung,54.8 µM
same,TGI,A549 NSCLC,> 100 µM
same,TGI,DMS 273 small cell lung,> 100 µM
same,TGI,ACHN renal,> 100 µM
same,TGI,HOP-62 NSCLC,> 100 µM
same,TGI,NCI-H460 lung,> 100 µM
same,TGI,K-562 leukemia,> 100 µM
same,TGI,OVCAR-8 ovarian,> 100 µM
same,TGI,RXF 393 renal,96.5 µM
same,TGI,EKVX NSCLC,> 100 µM
same,TGI,HCC-2998 colon,> 100 µM
same,TGI,SF-268 CNS,> 100 µM
same,TGI,CCRF-CEM leukemia,> 100 µM
same,TGI,SW-620 colon,> 100 µM
same,TGI,OVCAR-3 ovarian,> 100 µM
same,TGI,SF-539 CNS,> 100 µM
same,TGI,SK-OV-3 ovarian,> 100 µM
same,TGI,SNB-78 CNS,> 100 µM
same,TGI,SR leukemia,99.2 µM
same,TGI,MALME-3M melanoma,> 100 µM
same,TGI,COLO 205 colon,> 100 µM
same,TGI,786-0 renal,> 100 µM
same,TGI,NCI-H23 lung,> 100 µM
same,TGI,DLD-1 colon,> 100 µM
same,TGI,HT29 colon,> 100 µM
same,TGI,LXFL 529 NSCLC,> 100 µM
same,TGI,SK-MEL-5 melanoma,33.3 µM
same,TGI,UO-31 renal,> 100 µM
same,TGI,KM12 colon,> 100 µM
same,TGI,M14 melanoma,> 100 µM
same,TGI,SK-MEL-2 melanoma,69.4 µM
same,TGI,SNB-75 CNS,> 100 µM
same,TGI,SF-295 CNS,> 100 µM
same,TGI,UACC-62 melanoma,> 100 µM
same,TGI,SNB-19 CNS,> 100 µM
same,TGI,SN12C renal,> 100 µM
same,TGI,OVCAR-5 ovarian,> 100 µM
same,TGI,RXF-631 renal,> 100 µM
same,TGI,HOP-18 NSCLC,> 100 µM
same,TGI,MOLT-4 leukemia,> 100 µM
